The structures appear in SMILES notation. Like-named read-outs stand apart in the source and are kept apart here.

The target of this assay is human μ-opiate receptor (Homo sapiens, UniProt P35372). As to the kind of experiment: Affinity for the human μ-opiate receptor ([3H]-naloxone displacement, SPA, CHO-K1 membrane preparation). It is filed as binding. Conditions: for inhibition at 1 µM: read-out: μ-Opioid receptor, % inhibition [1 μM]; for Ki: read-out: μ-Opioid receptor, Ki.
Where [1] appears, read: 1 μM test substance, inhibition of specific [3H]-naloxone binding.

Chain of human μ-opiate receptor (P35372 whole entry): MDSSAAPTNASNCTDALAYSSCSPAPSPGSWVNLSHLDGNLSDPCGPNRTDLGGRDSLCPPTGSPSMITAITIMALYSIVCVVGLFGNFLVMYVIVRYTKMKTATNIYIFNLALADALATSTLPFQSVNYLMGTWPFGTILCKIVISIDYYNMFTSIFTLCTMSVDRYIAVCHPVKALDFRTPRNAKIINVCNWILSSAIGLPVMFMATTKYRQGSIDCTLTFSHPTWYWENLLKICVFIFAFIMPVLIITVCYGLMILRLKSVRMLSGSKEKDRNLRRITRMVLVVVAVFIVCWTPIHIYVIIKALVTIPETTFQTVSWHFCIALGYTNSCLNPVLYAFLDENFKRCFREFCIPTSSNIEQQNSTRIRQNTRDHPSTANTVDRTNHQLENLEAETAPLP

As a reminder, the inhibition is the drop in the measured response relative to a control, in per cent. By Ki is commonly meant a measure of affinity in units of concentration, obtained from inhibition or displacement. As for `CN(C)C(c1cccc(F)c1)C1CCC(CCNC(=O)c2ccccc2Br)CC1` (stereo not shown) [compound 396, 2-bromo-N-(2-{4-[dimethylamino-(3-fluoro-phenyl)-methyl]-cyclohexyl}-ethyl)-benzamide], the inhibition at 1 µM turned out to be 97% and the Ki is 12 nM.
For `CN(C)C(c1cccs1)C1CCC(NC(=O)Cc2ccc(Cl)cc2)CC1` (stereo not shown) [compound 219, 2-(4-chloro-phenyl)-N-[4-(dimethylamino-thiophen-2-yl-methyl)-cyclohexyl]-acetamide], in that order: 89% and 56 nM.
For `CN(C)C(c1ccccc1)C1CCC(CNC(=O)c2cccc(Cl)c2)CC1` (stereo not shown) [compound 331, 3-chloro-N-[4-(dimethylamino-phenyl-methyl)-cyclohexylmethyl]-benzamide], in that order: 93% and 11 nM.
The corresponding values for `CN(C)C(c1ccc(F)cc1)C1CCC(NC(=O)c2ccc(Cl)c(Cl)c2)CC1` (stereo not shown) [compound 270, 3,4-dichloro-N-{4-[dimethylamino-(4-fluoro-phenyl)-methyl]-cyclohexyl}-benzamide] are 75% and 190 nM.
For the compound `CN(C)C(c1ccccc1)C1CCC(NC(=O)c2cncc(Br)c2)CC1` (stereo not shown) [compound 235, 5-bromo-N-[4-(dimethylamino-phenyl-methyl)-cyclohexyl]-nicotinamide], the inhibition at 1 µM was 84% and the Ki was 61 nM.
On to `CN(C)C(c1ccc(F)cc1)C1CCC(CNC(=O)Cc2cccs2)CC1` (stereo not shown) [compound 359, N-{4-[dimethylamino-(4-fluoro-phenyl)-methyl]-cyclohexylmethyl}-2-thiophen-2-yl-acetamide], for which the inhibition at 1 µM is 86%.
For `CN(C)C(c1ccccc1)C1CCC(CCNC(=O)c2ccc(Cl)cc2)CC1` (stereo not shown) [compound 405, 4-chloro-N-{2-[4-(dimethylamino-phenyl-methyl)-cyclohexyl]-ethyl}-benzamide], the inhibition at 1 µM was found to be 88% and the Ki amounted to 25 nM.
Turning to `CN(C)C(c1ccc(Cl)cc1)C1CCC(CNC(=O)c2ccccc2Br)CC1` (stereo not shown) [compound 394, 2-bromo-N-{4-[(4-chloro-phenyl)-dimethylamino-methyl]-cyclohexylmethyl}-benzamide], the inhibition at 1 µM was found to be 79% and the Ki amounted to 48 nM.
As to `CN(C)C(c1ccc(Cl)cc1)C1CCC(CNC(=O)CC(C)(C)C)CC1` (stereo not shown) [compound 309, N-{4-[(4-chloro-phenyl)-dimethylamino-methyl]-cyclohexylmethyl}-3,3-dimethyl-butyramide], the inhibition at 1 µM was found to be 98% and the Ki was found to be 5.6 nM.
For `CN(C)C(c1ccccc1)C1CCC(CCNC(=O)c2cccs2)CC1` (stereo not shown) [compound 452, thiophene-2-carboxylic acid {2-[4-(dimethylamino-phenyl-methyl)-cyclohexyl]-ethyl}-amide], in that order: 99% and 12 nM.
As for `CN(C)C(c1cccc(F)c1)C1CCC(CNC(=O)Cc2ccccc2)CC1` (single isomer, unassigned) [compound 348, N-{4-[dimethylamino-(3-fluoro-phenyl)-methyl]-cyclohexylmethyl}-2-phenyl-acetamide], the Ki is 30 nM. In addition, the “μ-Opioid receptor, % inhibition [1 μM]” value (1 µM) is 89%.
On to `CN(C)C(c1ccc(F)cc1)C1CCC(CCNC(=O)c2cccc(Cl)c2)CC1` (single isomer, unassigned) [compound 422, 3-chloro-N-(2-{4-[dimethylamino-(4-fluoro-phenyl)-methyl]-cyclohexyl}-ethyl)-benzamide], for which the inhibition at 1 µM came out at 83% and the Ki is 35 nM.
As to `CN(C)C(c1ccccc1)C1CCC(CCNC(=O)C(c2ccccc2)c2ccccc2)CC1` (stereo not shown) [compound 448, N-{2-[4-(dimethylamino-phenyl-methyl)-cyclohexyl]-ethyl}-2,2-diphenyl-acetamide], the inhibition at 1 µM amounted to 95% and the Ki is 33 nM.
For `CN(C)C(c1cccs1)C1CCC(NC(=O)c2cccc(C#N)c2)CC1` (stereo not shown) [compound 186, 3-cyano-N-[4-(dimethylamino-thiophen-2-yl-methyl)-cyclohexyl]-benzamide], the inhibition at 1 µM worked out at 100% and the Ki is 18 nM.
For `CN(C)C(c1ccccc1)C1CCC(CNC(=O)c2cccc(C(F)(F)F)c2)CC1` (single isomer, unassigned) [compound 326, N-[4-(dimethylamino-phenyl-methyl)-cyclohexylmethyl]-3-trifluoromethyl-benzamide], the inhibition at 1 µM amounted to 94% and the Ki is 11 nM.
Consider `CN(C)C(c1ccccc1)C1CCC(CNC(=O)c2c(Cl)cc(Cl)cc2Cl)CC1` (stereo not shown) [compound 338, 2,4,6-trichloro-N-[4-(dimethylamino-phenyl-methyl)-cyclohexylmethyl]-benzamide], for which the inhibition at 1 µM is 91% and the Ki came out at 28 nM.
As to `CN(C)C(c1cccc(F)c1)C1CCC(O)(c2cc(Cl)cc(Cl)c2)CC1` (stereo not shown) [compound 155, 1-(3,5-dichloro-phenyl)-4-[dimethylamino-(3-fluoro-phenyl)-methyl]-cyclohexanol], the inhibition at 1 µM under setting [1] stood at 77%.
In the case of `CN(C)C(c1cccc(F)c1)C1CCC(O)(CCc2ccccc2)CC1` (stereo not shown) [compound 153, 4-[dimethylamino-(3-fluoro-phenyl)-methyl]-1-phenethyl-cyclohexanol], the inhibition at 1 µM under setting [1] worked out at 87%.
In the case of `CN(C)C(c1cccc(F)c1)C1CCC(CCNC(=O)c2ccc(F)cc2)CC1` (stereo not shown) [compound 409, N-(2-{4-[dimethylamino-(3-fluoro-phenyl)-methyl]-cyclohexyl}-ethyl)-4-fluoro-benzamide], the inhibition at 1 µM amounted to 84% and the Ki was found to be 28 nM.
The corresponding values for `CCCc1ccc(C(=O)NCCC2CCC(C(c3cccs3)N(C)C)CC2)cc1` (stereo not shown) [compound 443, N-{2-[4-(dimethylamino-thiophen-2-yl-methyl)-cyclohexyl]-ethyl}-4-propyl-benzamide] are 96% and 40 nM.
Take `CN(C)C(c1ccc(Cl)cc1)C1CCC(CCNC(=O)c2ccc(F)c(F)c2)CC1` (stereo not shown) [compound 445, N-(2-{4-[(4-chloro-phenyl)-dimethylamino-methyl]-cyclohexyl}-ethyl)-3,4-difluoro-benzamide]: the inhibition at 1 µM was 86% and the Ki was 69 nM.
As to `Cc1cc(C(=O)NC2CCC(C(c3cccs3)N(C)C)CC2)n(C(C)(C)C)n1` (stereo not shown) [compound 201, 2-tert-butyl-5-methyl-2H-pyrazole-3-carboxylic acid [4-(dimethylamino-thiophen-2-yl-methyl)-cyclohexyl]-amide], the inhibition at 1 µM turned out to be 94% and the Ki is 16 nM.
The corresponding values for `CN(C)C(c1cccs1)C1CCC(CCNC(=O)c2ccc(F)c(F)c2)CC1` (stereo not shown) [compound 446, N-{2-[4-(dimethylamino-thiophen-2-yl-methyl)-cyclohexyl]-ethyl}-3,4-difluoro-benzamide] are 99% and 6.4 nM.
For `CCCCCC1(O)CCC(C(c2ccc(Cl)cc2)N(C)C)CC1` (stereo not shown) [compound 169, 4-[(4-chloro-phenyl)-dimethylamino-methyl]-1-pentyl-cyclohexanol], the inhibition at 1 µM under setting [1] was determined as 71%.
`COc1cccc(C(=O)NCC2CCC(C(c3ccc(Cl)cc3)N(C)C)CC2)c1` (stereo not shown) [compound 393, N-{4-[(4-chloro-phenyl)-dimethylamino-methyl]-cyclohexylmethyl}-3-methoxy-benzamide]: the inhibition at 1 µM is 80% and the Ki was 44 nM.
Take `CN(C)C(c1cccs1)C1CCC(NC(=O)c2csc(-c3ccc4c(c3)CCO4)n2)CC1` (stereo not shown) [compound 239, 2-(2,3-dihydro-benzofuran-5-yl)-thiazole-4-carboxylic acid [4-(dimethylamino-thiophen-2-yl-methyl)-cyclohexyl]-amide]: the inhibition at 1 µM turned out to be 82% and the Ki is 80 nM.
The corresponding values for `COc1c(C(=O)NCC2CCC(C(c3ccccc3)N(C)C)CC2)csc1Cl` (stereo not shown) [compound 293, 5-chloro-4-methoxy-thiophene-3-carboxylic acid [4-(dimethylamino-phenyl-methyl)-cyclohexylmethyl]-amide] are 102% and 4.6 nM.
Turning to `CN(C)C(c1ccccc1)C1CCC(CCNC(=O)c2ccc([N+](=O)[O-])cc2)CC1` (stereo not shown) [compound 458, N-{2-[4-(dimethylamino-phenyl-methyl)-cyclohexyl]-ethyl}-4-nitro-benzamide], the inhibition at 1 µM was found to be 93% and the Ki was 49 nM.
For `CN(C)C(c1cccc(F)c1)C1CCC(CCNC(=O)c2ccc(Cl)cc2)CC1` (stereo not shown) [compound 406, 4-chloro-N-(2-{4-[dimethylamino-(3-fluoro-phenyl)-methyl]-cyclohexyl}-ethyl)-benzamide], in that order: 81% and 40 nM.
In the case of `CN(C)C(c1ccccc1)C1CCC(CCNC(=O)c2c(Cl)cccc2Cl)CC1` (stereo not shown) [compound 413, 2,6-dichloro-N-{2-[4-(dimethylamino-phenyl-methyl)-cyclohexyl]-ethyl}-benzamide], the inhibition at 1 µM came to 81% and the Ki amounted to 31 nM.
The corresponding values for `CN(C)C(c1ccc(F)cc1)C1CCC(CCNC(=O)c2csc(-c3ccccc3)n2)CC1` (stereo not shown) [compound 464, 2-phenyl-thiazole-4-carboxylic acid (2-{4-[dimethylamino-(4-fluoro-phenyl)-methyl]-cyclohexyl}-ethyl)-amide] are 92% and 75 nM.
`CN(C)C(c1cccc(F)c1)C1CCC(NC(=O)c2ccc3nsnc3c2)CC1` (stereo not shown) [compound 290, benzo[1,2,5]thiadiazole-5-carboxylic acid {4-[dimethylamino-(3-fluoro-phenyl)-methyl]-cyclohexyl}-amide]: the inhibition at 1 µM is 70%.
Turning to `CN(C)C(c1cccc(F)c1)C1CCC(CNC(=O)c2csc3ccccc23)CC1` (stereo not shown) [compound 314, benzo[b]thiophene-3-carboxylic acid {4-[dimethylamino-(3-fluoro-phenyl)-methyl]-cyclohexylmethyl}-amide], the inhibition at 1 µM is 97% and the Ki came to 4.2 nM.
